Patent publication US6410592B1, “Aminomethylcarboxylic acid derivatives” (Akzo Nobel N.V., priority 1998, dated 2002)
Structures can show the parent of a compound that is named as a salt.

biological target: T1, human GlyT-1b transporter (Homo sapiens, UniProt P48067); assay: glycine uptake in CHO cells heterologously expressing the human GlyT-1b transporter; assay type: cell-based; settings: [3H]glycine uptake, CHO cells stably expressing hGlyT-1b, 5 min preincubation, 10 min uptake, 37° C.
T1 construct: expressed in transfected cells; host or cells: CHO cells, stably transfected, pcDNA3 expression construct
T1 sequence (P48067 1-652 isoform P48067-3): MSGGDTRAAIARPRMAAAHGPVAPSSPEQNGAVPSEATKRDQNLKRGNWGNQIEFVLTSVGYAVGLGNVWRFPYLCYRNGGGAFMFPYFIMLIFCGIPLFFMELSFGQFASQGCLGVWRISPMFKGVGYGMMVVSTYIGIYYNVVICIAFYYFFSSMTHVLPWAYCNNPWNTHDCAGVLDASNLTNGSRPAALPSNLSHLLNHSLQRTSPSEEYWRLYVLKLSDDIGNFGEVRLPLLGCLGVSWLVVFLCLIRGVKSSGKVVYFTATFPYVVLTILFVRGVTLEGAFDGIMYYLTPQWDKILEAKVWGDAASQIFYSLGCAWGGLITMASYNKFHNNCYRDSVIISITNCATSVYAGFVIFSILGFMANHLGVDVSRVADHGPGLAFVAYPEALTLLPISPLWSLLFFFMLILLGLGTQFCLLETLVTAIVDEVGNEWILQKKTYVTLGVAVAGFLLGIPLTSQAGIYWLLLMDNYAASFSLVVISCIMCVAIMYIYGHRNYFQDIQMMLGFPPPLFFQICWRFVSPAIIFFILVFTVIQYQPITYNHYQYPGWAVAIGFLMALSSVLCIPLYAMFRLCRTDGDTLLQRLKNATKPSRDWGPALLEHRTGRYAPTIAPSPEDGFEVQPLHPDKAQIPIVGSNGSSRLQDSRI
Description: Method for determination of glycine uptake in CHO cells heterologously expressing the human GlyT-1b transporter.
cDNA was generated by PCR according to the method described by Kim, K.-M. et al. Mol. Pharmacol. 1994, 45, 608-617. Sequence was verified by dideoxy sequencing using the ALF DNA sequencer™ (Pharmacia) and cloned into the expression construct pcDNA3 (Invitrogen).
Transfection of hGlyT-1b into CHO cells was performed using a standard calcium phosphate technique as described by Sambrook, J. et al. (1989) in Molecular Cloning: A Laboratory Manual, Cold Spring Harbor Laboratory, Cold Spring Harbor, N.Y.
Stably transfected cells were selected for 1 week in growth medium containing 1 mg.cm^−3 Geneticin. Individual clones were picked for further analysis and positives passaged routinely as described below.
Cells stably expressing the hGlyT-1b gene were cultured at 37° C. in a 5% CO2 atmosphere in DMEM—NUT.MIX. F12 with Glutamax-1 (Gibco) containing Geneticin (0.5 mg.cm^−3, Gibco) and supplemented with 10% Fetalclone II (Hyclone). Maintenance culture was carried out in standard 80 cm^2 ventilated flasks (2 m^−6 filter, Nunc) and cells were subcultured by trypsinisation (Sigma) when confluent.
Cells for uptake studies were plated in 96 well plates (17,000 cells per well) in the absence of Geneticin and cultured for 48 h before use. To measure glycine transport, cells were washed twice with Hanks' balanced salt solution (HBSS) pre-warmed to 37° C. and excess fluid removed before addition of test compounds dissolved in 0.200 cm^3 HBSS. Plates were incubated at 37° C. for 5 minutes before addition of [^3H]glycine (0.050 cm^3, 150 M^−6, 248 Bq.nmol^−1, NEN) and incubation continued for a further 10 minutes. Uptake was terminated by washing cells with ice-cold HBSS before removal of excess fluid and addition of 0.200 cm^3 scintillation cocktail to each well. Plates were sealed with adhesive film, shaken to ensure samples were homogenous before scintillation counting in a plate counter.
Data were analysed using standard curve fitting procedures to produce a pIC50 value for active compounds (where pIC50 is the negative logarithm of the concentration of test compound causing 50% inhibition of uptake).

| SMILES | pIC50, Inhibition of glycine transport by hGlyT-1 |
| --- | --- |
| COc1ccc2c(c1)CC[C@H](CN(C)CC(=O)[O-])[C@@H]2c1ccccc1.[Li+] (relative stereo) [Example (−)-4, (−)-Lithium cis-N-methyl-N-(6-methoxy-1-phenyl-1,2,3,4-tetrahydronaphthalen-2-ylmethyl) aminomethylcarboxylate] | 6.8 |

same assay, conditions: [3H]glycine uptake, CHO cells stably expressing hGlyT-1b, 5 min preincubation, 10 min uptake, 37° C.; read-out: pIC50, Inhibition of glycine transport by hGlyT-1 (converted)

| SMILES | IC50 [nM] |
| --- | --- |
| COc1ccc2c(c1)CCC(CN(C)CC(=O)O)C2c1ccccc1 (racemic) [(+/−)-4, Lithium cis-N-methyl-N-(6-methoxy-1-phenyl-1,2,3,4-tetrahydronaphthalen-2-ylmethyl) aminomethylcarboxylate] | 501 |
| CN(CC(=O)O)CC1CCc2cc(C(F)(F)F)ccc2C1c1ccc(F)cc1 (racemic) [(+/−)-8, Lithium cis-N-methyl-N-[1-(4-fluorophenyl)-6-trifluoromethyl-1,2,3,4-tetrahydronaphthalen-2-ylmethyl] aminomethylcarboxylate] | 126 |
| CN(CC(=O)O)CC1CCc2cc(Oc3ccccc3)ccc2C1c1ccccc1 (racemic) [(+/−)-17, Lithium cis-N-methyl-N-(6-phenoxy-1-phenyl-1,2,3,4-tetrahydronaphthalen-2-ylmethyl) aminomethylcarboxylate] | 158 |
| Cc1ccc2c(c1)CCC(CN(C)CC(=O)O)C2c1ccccc1 (racemic) [(+/−)-23, Lithium cis-N-methyl-N-(6-methyl-1-phenyl-1,2,3,4-tetrahydronaphthalen-2-ylmethyl) aminomethylcarboxylate] | 251 |
| CN(CC(=O)O)C[C@H]1CCc2cc(OCC(C)(C)C)ccc2[C@H]1c1ccccc1.Cl (racemic) [(+/−)-34, cis-N-Methyl-N-[6-(2,2-dimethylpropyloxy)-1-phenyl-1,2,3,4-tetrahydronaphthalen-2-ylmethyl] aminomethylcarboxylic acid hydrochloride] | 251 |
| CN(CC(=O)O)CC1CCc2cc(C(F)(F)F)ccc2C1c1ccc(F)cc1 (single isomer, unassigned; (-)) [Example (−)-8, (−)-Lithium N-methyl-N-[1-(4-fluorophenyl)-6-trifluoromethyl-1,2,3,4-tetrahydronaphthalen-2-ylmethyl] aminomethylcarboxylate] | 50.1 |
| CN(CC(=O)O)CC1CCc2cc(Oc3ccccc3)ccc2C1c1ccccc1 (single isomer, unassigned; (-)) [Example (−)-17, (−)-Sodium cis-N-methyl-N-(6-phenoxy-1-phenyl-1,2,3,4-tetrahydronaphthalen-2-ylmethyl) aminomethylcarboxylate] | 100 |
| Cc1ccc2c(c1)CCC(CN(C)CC(=O)O)C2c1ccccc1 (single isomer, unassigned; (-)) [Example (−)-23, (−)-Sodium cis-N-methyl-N-(6-methyl-1-phenyl-1,2,3,4-tetrahydronaphthalen-2-ylmethyl) aminomethylcarboxylate] | 126 |
| CN(CC(=O)O)CC1CCc2cc(OCC(C)(C)C)ccc2C1c1ccccc1 (single isomer, unassigned; (-)) [Example (−)-34, (−)-Lithium cis-N-methyl-N-[1-phenyl-6-(2,2-dimethylpropyloxy)-1,2,3,4-tetrahydronaphthalen-2-ylmethyl] aminomethylcarboxylate] | 251 |

test system: not given; assay: not given; settings: not given

| SMILES | melting point |
| --- | --- |
| CN(CC(=O)O)CC1CCc2cc(C(F)(F)F)ccc2C1c1ccc(F)cc1 (racemic) (as salt: salt) [(+/−)-8, Lithium cis-N-methyl-N-[1-(4-fluorophenyl)-6-trifluoromethyl-1,2,3,4-tetrahydronaphthalen-2-ylmethyl] aminomethylcarboxylate] | 137 to 142 °C |
| CN(CC(=O)O)CC1CCc2cc(Oc3ccccc3)ccc2C1c1ccccc1 (racemic) (as salt: salt) [(+/−)-17, Lithium cis-N-methyl-N-(6-phenoxy-1-phenyl-1,2,3,4-tetrahydronaphthalen-2-ylmethyl) aminomethylcarboxylate] | 191 to 200 °C |
| Cc1ccc2c(c1)CCC(CN(C)CC(=O)O)C2c1ccccc1 (racemic) (as salt: salt) [(+/−)-23, Lithium cis-N-methyl-N-(6-methyl-1-phenyl-1,2,3,4-tetrahydronaphthalen-2-ylmethyl) aminomethylcarboxylate] | 135 to 138 °C |
| CN(CC(=O)O)C[C@H]1CCc2cc(OCC(C)(C)C)ccc2[C@H]1c1ccccc1.Cl (racemic) [(+/−)-34, cis-N-Methyl-N-[6-(2,2-dimethylpropyloxy)-1-phenyl-1,2,3,4-tetrahydronaphthalen-2-ylmethyl] aminomethylcarboxylic acid hydrochloride] | 151 to 155 °C |
| COc1ccc2c(c1)CC[C@H](CN(C)CC(=O)O)[C@@H]2c1cccc(C)c1.O=C(O)C(F)(F)F (relative stereo) | 96 to 106 °C |
| CN(CC(=O)O)C[C@H]1CCc2ccccc2[C@H]1c1ccccc1.Cl (relative stereo) | 205 to 211 °C (dec.) |
| CN(CC(=O)O)C[C@H]1CCc2cc(-c3ccccc3)ccc2[C@H]1c1ccccc1.Cl (relative stereo) | 210 to 221 °C |
| CN(CC(=O)O)C[C@H]1CCc2cc(C#N)ccc2[C@H]1c1ccccc1.Cl (relative stereo) | 197 °C (dec.) |
| COC(=O)c1ccc2c(c1)CC[C@H](CN(C)CC(=O)O)[C@@H]2c1ccccc1.Cl (relative stereo) | 166 to 171 °C |
| CN(CC(=O)O)C[C@H]1CCc2cc(OC3CCCCC3)ccc2[C@H]1c1ccccc1.Cl (relative stereo) | > 210 °C (dec.) |
| CN(CC(=O)O)C[C@H]1CCc2cc(OCc3ccccc3)ccc2[C@H]1c1ccccc1.Cl (relative stereo) | 200 to 210 °C |
| CN(CC(=O)O)C[C@H]1CCc2cc(OCC3CC3)ccc2[C@H]1c1ccccc1.Cl (relative stereo) | 173 to 177 °C |
| CN(CC(=O)O)CC1CCc2cc(C(F)(F)F)ccc2C1c1ccc(F)cc1 (single isomer, unassigned; (-)) (as salt: salt) [Example (−)-8, (−)-Lithium N-methyl-N-[1-(4-fluorophenyl)-6-trifluoromethyl-1,2,3,4-tetrahydronaphthalen-2-ylmethyl] aminomethylcarboxylate] | 161 to 164 °C |
| CN(CC(=O)O)CC1CCc2cc(OCC(C)(C)C)ccc2C1c1ccccc1 (single isomer, unassigned; (-)) (as salt: salt) [Example (−)-34, (−)-Lithium cis-N-methyl-N-[1-phenyl-6-(2,2-dimethylpropyloxy)-1,2,3,4-tetrahydronaphthalen-2-ylmethyl] aminomethylcarboxylate] | 168 to 170 °C |
